Structures can show the parent of a compound that is named as a salt.

The first assay has as its target T1, Lp-PLA2 in human plasma (Homo sapiens, UniProt Q13093).
T1 construct: This assay may detect the activity of Lp-PLA2 in human plasma; from tissue; host or cells: pooled human plasma
T1 sequence (Q13093 22-441): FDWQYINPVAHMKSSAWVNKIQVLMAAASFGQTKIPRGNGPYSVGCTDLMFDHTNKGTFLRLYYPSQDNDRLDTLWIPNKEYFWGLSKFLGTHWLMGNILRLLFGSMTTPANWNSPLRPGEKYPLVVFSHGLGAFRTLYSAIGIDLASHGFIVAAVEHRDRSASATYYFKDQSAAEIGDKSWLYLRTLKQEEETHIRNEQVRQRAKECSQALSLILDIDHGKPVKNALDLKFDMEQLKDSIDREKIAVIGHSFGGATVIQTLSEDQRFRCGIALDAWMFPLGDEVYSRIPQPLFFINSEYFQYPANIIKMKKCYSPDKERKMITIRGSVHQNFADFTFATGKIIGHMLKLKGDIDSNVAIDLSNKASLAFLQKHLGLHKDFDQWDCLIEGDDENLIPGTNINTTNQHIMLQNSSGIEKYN
Briefly: Lp-PLA2 human plasma assay (Thio-PAF assay). It is filed as biochemical. The note with it: pooled human plasma, 2-thio-PAF substrate; read-out: pIC50 in the thio-PAF assay (converted). An excerpt: (3) Lipoprotein-Associated Phospholipase A2 (Lp-PLA2) Human Plasma Assay (Also Referred to as “Thio-PAF Assay”)
The human plasma assay utilizes a thioester analog of PAF (phosphatidylcholine), where hydrolysis yields to the formation of a phospholipid containing a free thiol group. The amount of thiol is quantitated continuously by reacting with CPM (7-diethylamino-3-(4′-maleimidylphenyl)-4-methylcoumarin), a maleimide which increases in fluoresence after Michael addition of thiols. This assay may detect the activity of Lp-PLA2 in human plasma, as determined by specific inhibition by Lp-PLA2 inhibitors.
The thio-PAF assay was run as a quenched 15 μL assay. Compounds source plate was prepared by making 1:3 (by volume) serial dilution of the compounds into pure DMSO on 384-well microplate. 0.01 μL of compounds on compound source plate were transferred to 384 well Greiner 784076 (black) low-volume plates by ECHO liquid dispenser. 8 μL pooled human plasma, which was previously aliquoted and frozen, was added. Plates were centrifuged for 10 sec at 500 rpm. After 30 minutes preincubation, 2 μL of substrate solution comprising 2.5 mM 2-thio-PAF [from ethanol stock], 32 μM CPM [from a DMSO stock] and 3.2 mM NEM (N-ethylmaleimide) [made fresh daily in DMSO] in assay buffer of 50 mM HEPES, pH 7.4, 150 mM NaCl, 1 mM CHAPS was added to 384 well Greiner 784076 (black) low-volume plates by BRAVO liquid handling station. After 2 mins, reaction was quenched with 5 μL of 5% aqueous trifluoroacetic acid (TFA). Plates were covered to protect from light and incubated for 40 min at room temperature. Plates were read at ex: 380/em: 485 using-Envision microplate reader. pIC50 data, curve and QC analysis was conducted by using XLFit module in Excel.
On to `CN1CCn2c1cc(OCc1ccc(F)c(C#N)c1)nc2=O` [Example 146, 2-fluoro-5-(((l-methyl-5-oxo-1,2,3,5-tetrahydroimidazo[1,2-c]pyrimidin-7-yl)oxy)methyl)benzonitrile], for which the IC50 is at most 1000 nM.

In the case of `Cc1ccc(Oc2ccc(COc3cc4n(c(=O)n3)CCN4C)cc2C#N)cn1` [Example E56, 5-(((1-methyl-5-oxo-1,2,3,5-tetrahydroimidazo[1,2-c]pyrimidin-7-yl)oxy)methyl)-2-((6-methylpyridin-3-yl)oxy)benzonitrile, trifluoroacetic acid salt], the IC50 was at most 1000 nM.

As to `CN1CCn2c1cc(OCc1cc(F)c(F)c(F)c1)nc2=O` [Example E17, 1-methyl-7-((3,4,5-trifluorobenzyl)oxy)-2,3-dihydroimidazo[1,2-c]pyrimidin-5(1H)-one], the IC50 was at most 1000 nM.

With `CN1CCn2c1cc(OCc1ccc(Oc3ccc(F)c(Cl)c3)c(C#N)c1)nc2=O` [Example E39, 2-(3-chloro-4-fluorophenoxy)-5-(((1-methyl-5-oxo-1,2,3,5-tetrahydroimidazo[1,2-c]pyrimidin-7-yl)oxy)methyl)benzonitrile, trifluoroacetic acid salt], the IC50 was at most 1000 nM.

For `CN1CCn2c1cc(OCc1ccc(Oc3ccc(C#N)nc3)c(C#N)c1)nc2=O` [Example 108, 5-(2-cyano-4-(((1-methyl-5-oxo-1,2,3,5-tetrahydroimidazo[1,2-c]pyrimidin-7-yl)oxy)methyl)phenoxy)picolinonitrile], the IC50 was at most 1000 nM.

Consider `O=c1nc(OCc2ccc(F)c(F)c2)cc2n1CCN2` [Example E68, 7-((3,4-difluorobenzyl)oxy)-2,3-dihydroimidazo[1,2-c]pyrimidin-5(1H)-one], for which the IC50 was at most 1000 nM.

Consider `CC(C)N1CCn2c1cc(OCc1ccc(F)c(F)c1)nc2=O` [Example E47, 7-((3,4-difluorobenzyl)oxy)-1-isopropyl-2,3-dihydroimidazo[1,2-c]pyrimidin-5(1H)-one, trifluoroacetic acid salt], for which the IC50 was at most 1000 nM.

Take `CN1CCn2c1cc(OCc1ccc(Oc3cncc(C#N)c3)c(F)c1)nc2=O` [Example 141, 5-(2-fluoro-4-(((1-methyl-5-oxo-1,2,3,5-tetrahydroimidazo[1,2-c]pyrimidin-7-yl)oxy)methyl)phenoxy)nicotinonitrile]: the IC50 was at most 1000 nM.

For `CN1CCn2c1cc(OCc1ccc(Oc3cncc(F)c3)c(C#N)c1)nc2=O` [Example 137, 2-((5-fluoropyridin-3-yl)oxy)-5-(((1-methyl-5-oxo-1,2,3,5-tetrahydroimidazo[1,2-c]pyrimidin-7-yl)oxy)methyl)benzonitrile], the IC50 is at most 1000 nM.

As for `CN1CCn2c1cc(OCc1cccc(C#N)c1)nc2=O` [Example E33, 3-(((1-methyl-5-oxo-1,2,3,5-tetrahydroimidazo[1,2-c]pyrimidin-7-yl)oxy)meth-yl)benzonitrile], the IC50 is at most 1000 nM.

`CN1CCn2c1cc(OCc1ccc(F)c(F)c1)nc2=O` [Example E7, 7-((3,4-difluorobenzyl)oxy)-1-methyl-2,3-dihydroimidazo[1,2-c]pyrimidin-5(1H)-one]: the IC50 was at most 1000 nM.

On to `CN1CCn2c1cc(OCc1ccc(Oc3cncc(C#N)c3)c(C#N)c1)nc2=O` [Example 138, 5-(2-cyano-4-(((l-methyl-5-oxo-1,2,3,5-tetrahydroimidazo[1,2-c]pyrimidin-7-yl)oxy)methyl)phenoxy)nicotinonitrile], for which the IC50 is at most 1000 nM.

For `N#Cc1cccc(COc2cc3n(c(=O)n2)CCN3)c1` [Example E60, 3-(((5-oxo-1,2,3,5-tetrahydroimidazo[1,2-c]pyrimidin-7-yl)oxy)methyl)benzonitrile], the IC50 is at most 1000 nM.

For the compound `CN1CCn2c1cc(OCc1ccc(Oc3cnc(C(F)(F)F)nc3)c(C#N)c1)nc2=O` [Example E31, 5-(((l-methyl-5-oxo-1,2,3,5-tetrahydroimidazo[1,2-c]pyrimidin-7-yl)oxy)methyl)-2-((2-(trifluoromethyl)pyrimidin-5-yl)oxy)benzonitrile], the IC50 was at most 1000 nM.

The next assay has as its target T2, recombinant human Lp-PLA2 (Homo sapiens, UniProt Q13093).
T2 sequence (Q13093 22-441): T1 sequence (Q13093 22-441)
Briefly: Recombinant human Lp-PLA2 assay (rhLp-PLA2, PED6 assay). It is filed as biochemical. The conditions noted are these: recombinant human Lp-PLA2, PED6 substrate; upper limit for pIC50 in this assay is 9.3. The text has this: (1) Recombinant Human Lp-PLA2 Assay (rhLp-PLA2) (Also Referred to as “PED6” Assay)
N-((6-(2,4-dinitrophenyl)amino)-hexanoyl)-2-(4,4-difluoro-5,7-dimethyl-4-bora-3a,4a-diaza-s-indacene-3-pentanoyl)-1-hexadecanoyl-sn-glycero-3-phosphoethanolamine, triethylammonium salt (PED6) is a commercially available fluorescently-labeled phospholipid, which is commercially available from Invitrogene and Molecular Probes. There is a quenching […] and a Bodipy fluorescein (FL) group in the sn2 position. Upon cleavage with Lp-PLA2, the Bodipy FL group is liberated and then may result in an increase in fluorescence. Inhibitors of Lp-PLA2 therefore prevent this cleavage and no fluorescent increase is observed.
The PED6 assay was run as an unquenched 10 μL assay. The source plate containing the compounds to be tested was prepared by making 1:3 (by volume) serial dilution of the compounds within DMSO on 384-well microplate. Then, 0.01 μL of the compounds on compound source plate were transferred into 384 well Greiner 784076 (black) plates using ECHO liquid dispenser. 5 µL of recombinant human Lp-PLA2 enzyme (4 nM (or 110 pM) rhLp-PLA2 in assay buffer of 50 mM HEPES, pH 7.4, 150 mM NaCl, 1 mM CHAPS) was added to each well of the plate. Plates were centrifuged for 10 sec at 500 rpm. After 30 minutes preincubation, 5 µL of substrate (4 μM (or 5 μM) PED6 [from 5 mM DMSO stock] in assay buffer of 50 mM HEPES, pH 7.4, 150 mM NaCl, 1 mM CHAPS) was added to 384 well Greiner 784076 (black) plates. Plates were centrifuged for 10 sec at 500 rpm. The plate was covered to protect it from light and incubated for 20 min at room temperature. The plates were read for fluorescence intensity at ex: 480/em: 540 using ViewLux microplate imager for Envision spectrofluroimeters pIC50 data, curve and QC analysis was conducted by using XL fit module in Excel.
The compounds described below were tested generally according to the PED6 assay described above.
For `CN1CCn2c1cc(OCc1ccc(Oc3cccc(C#N)c3)c(F)c1)nc2=O` [Example E63, 3-(2-fluoro-4-(((1-methyl-5-oxo-1,2,3,5-tetrahydroimidazo[1,2-c]pyrimidin-7-yl)oxy)methyl)phenoxy)benzonitrile, trifluoroacetic acid salt], the IC50 was at most 10 nM.

With `N#Cc1cc(COc2cc3n(c(=O)n2)CCN3)ccc1Oc1cccc(C(F)(F)F)c1` [Example 112, 5-(((5-oxo-1,2,3,5-tetrahydroimidazo[1,2-c]pyrimidin-7-yl)oxy)methyl)-2-(3-(trifluoromethyl)phenoxy)benzonitrile], the IC50 was at most 10 nM.

For `O=c1nc(OCc2cc(F)c(Oc3ccc(F)cc3)c(F)c2)cc2n1CCN2` [Example E74, 7-((3,5-difluoro-4-(4-fluorophenoxy)benzyl)oxy)-2,3-dihydroimidazo[1,2-c]pyrimidin-5(1H)-one], the IC50 was at most 10 nM.

In the case of `CN1CCn2c1cc(OCc1ccc(Oc3cc(F)cc(F)c3)c(F)c1)nc2=O` [Example E43, 7-((4-(3,5-difluorophenoxy)-3-fluorobenzyl)oxy)-1-methyl-2,3-dihydroimidazo[1,2-c]pyrimidin-5(1H)-one, trifluoroacetic acid salt], the IC50 was at most 10 nM.

For the compound `CN1CCn2c1cc(OCc1ccc(Oc3ccc(F)cc3)c(C#N)c1)nc2=O` [Example E22, 2-(4-fluorophenoxy)-5-(((1-methyl-5-oxo-1,2,3,5-tetrahydroimidazo[1,2-c]pyrimidin-7-yl)oxy)methyl)benzonitrile], the IC50 was at most 10 nM.

Take `O=c1nc(OCc2ccc(Oc3ccc(Cl)c(Cl)c3)c(F)c2)cc2n1CCN2` [Example 98, 7-((4-(3,4-dichlorophenoxy)-3-fluorobenzyl)oxy)-2,3-dihydroimidazo[1,2-c]pyrimi-din-5(1H)-one]: the IC50 is at most 10 nM.

As to `O=c1nc(OCc2ccc(Oc3cc(F)cc(C(F)(F)F)c3)c(F)c2)cc2n1CCN2` [Example 151, 7-((3-fluoro-4-(3-fluoro-5-(trifluoromethyl)phenoxy)benzyl)oxy)-2,3-dihydroim-idazo[1,2-c]pyrimidin-5(1H)-one], the IC50 was at most 1 nM.

In the case of `O=c1nc(OCc2ccc(Oc3cccc(C(F)(F)F)c3)c(Cl)c2)cc2n1CCN2` [Example E61, 7-((3-chloro-4-(3-(trifluoromethyl)phenoxy)benzyl)oxy)-2,3-dihydroimidazo[1,2-c]pyrimidin-5(1H)-one], the IC50 was at most 10 nM.

Turning to `CN1CCn2c1cc(OCc1cc(F)c(Oc3ccc(F)cc3)c(F)c1)nc2=O` [Example E12, 7-((3,5-difluoro-4-(4-fluorophenoxy)benzyl)oxy)-1-methyl-2,3-dihydroimidazo[1,2-c]pyrimidin-5(1H)-one], the IC50 is at most 10 nM.

The record behind these values is US8975400B2, “2,3-dihydroimidazo[1, 2-c] pyrimidin-5(1 H)-one compounds use as LP-PLA2 inhibitors” (Glaxo Group Limited, priority 2011, dated 2015).
